Test results as given in ChEMBL document CHEMBL1146942, “Abacavir prodrugs: microwave-assisted synthesis and their evaluation of anti-HIV activities” (Bioorg Med Chem Lett, 2006).

Columns and labels:
[1] = test system: Human immunodeficiency virus 1; assay: Antiviral activity against HIV1 replication in CEM cell line; assay type: functional, organism-based; settings: Human immunodeficiency virus 1, CCRF-CEM
CCRF-CEM [2] = assay: Cytotoxicity against CEM cell line; assay type: functional; settings: Homo sapiens
CCRF-CEM [3] = assay: Selectivity index (CC50/EC50) for inhibition of HIV1 replication in CEM cell line; assay type: functional

| Compound | EC50 [1] | CC50 (CCRF-CEM [2]) | Selectivity index (CCRF-CEM [3]) |
| --- | --- | --- | --- |
| O=[N+]([O-])c1ccccc1/C=N/c1nc(NC2CC2)c2ncn(C3C=CC(CO)C3)c2n1 (stereo not given) | 0.48 µM | 13 µM | – |
| CN(C)c1ccc(/C=N/c2nc(NC3CC3)c3ncn(C4C=CC(CO)C4)c3n2)cc1 (stereo not given) | 0.06 µM | > 100 µM | – |
| OCC1C=CC(n2cnc3c(NC4CC4)nc(/N=C(\c4ccccc4)c4ccc(Br)cc4)nc32)C1 (stereo not given) | 3.7 µM | 45 µM | – |
| COc1ccc(/C=N/c2nc(NC3CC3)c3ncn(C4C=CC(CO)C4)c3n2)cc1 (stereo not given) | 0.36 µM | > 100 µM | – |
| Cc1ccc2c(c1)/C(=N\c1nc(NC3CC3)c3ncn(C4C=CC(CO)C4)c3n1)C(=O)N2 (stereo not given) | 2.1 µM | 78 µM | – |
| O=C1Nc2ccc(F)cc2/C1=N\c1nc(NC2CC2)c2ncn(C3C=CC(CO)C3)c2n1 (stereo not given) | 6.2 µM | 56 µM | – |
| C/C(=N\c1nc(NC2CC2)c2ncn(C3C=CC(CO)C3)c2n1)c1ccc(O)cc1 (stereo not given) | 1.9 µM | 62 µM | – |
| COc1ccc(/C=N/c2nc(NC3CC3)c3ncn(C4C=CC(CO)C4)c3n2)c(O)c1 (stereo not given) | 1.2 µM | 100 µM | – |
| O=C1Nc2ccccc2/C1=N\c1nc(NC2CC2)c2ncn(C3C=CC(CO)C3)c2n1 (stereo not given) | 5 µM | 48 µM | – |
| O=[N+]([O-])c1ccc(/C=N/c2nc(NC3CC3)c3ncn(C4C=CC(CO)C4)c3n2)cc1 (stereo not given) | 0.52 µM | 12 µM | – |
| Cc1ccc(/C=N/c2nc(NC3CC3)c3ncn(C4C=CC(CO)C4)c3n2)cc1 (stereo not given) | 0.05 µM | > 100 µM | >2000 |
| Nc1nc(NC2CC2)c2ncn([C@H]3C=C[C@@H](CO)C3)c2n1 [ABACAVIR] | 1.6 µM | 83 µM | – |
